Measured values published in paper PMC3227451, “Structure-based development of novel sirtuin inhibitors” (Aging (Albany NY), 2011).
Where two headings read alike, the source gives them in different places.

Assays:
Type in all cases: biochemical
Sirt2 = target: T1, Sirt2 (Homo sapiens, UniProt Q8IXJ6); test: Fluor-de-Lys peptide deacetylation assay, Sirt2
T1 sequence (Q8IXJ6 34-356): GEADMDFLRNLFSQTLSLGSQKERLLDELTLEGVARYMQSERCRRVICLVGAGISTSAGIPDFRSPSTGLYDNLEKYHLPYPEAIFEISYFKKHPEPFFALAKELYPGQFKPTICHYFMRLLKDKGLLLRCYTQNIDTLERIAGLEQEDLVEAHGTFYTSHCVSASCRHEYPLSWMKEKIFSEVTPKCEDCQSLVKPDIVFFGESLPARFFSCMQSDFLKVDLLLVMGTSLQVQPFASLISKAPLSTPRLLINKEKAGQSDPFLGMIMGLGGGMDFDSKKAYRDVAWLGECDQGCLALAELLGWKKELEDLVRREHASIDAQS
Experimental: The Sirt2 construct was expressed in E. coli Rosetta2 cells (Merck) in LB/Ampicillin/Chloramphenicol medium. Cells were grown at 37 °C, and expression induced at an OD600 of 0.6-0.8 for 4 h with 0.5 mM IPTG. Harvested cells were resuspended in buffer A (50 mM Tris/HCl pH 7.8, 200 mM NaCl, 2 mM DTT), disrupted with a Sonifier, and cell debris removed by 40 min centrifugation at 4 °C, 18000 rpm in a HFA22.50 rotor. The supernatant was supplemented with 10 mM imidazole and incubated with Ni-NTA resin for 1 h at 4 °C. […] The protein was concentrated in an amicon unit (Millipore, Billerica, USA) and digested over night at 4 °C with TEV-protease. The protease was removed from cleaved Sirt2 by incubation with Ni-NTA resin for 1 h at 4 °C. The protein was concentrated, 1:5 diluted with 50 mM Tris/HCl, pH 7.8, and applied to a HiTrap Q anion exchange column (GE Healthcare) equilibrated with 50 mM Tris/HCl, pH 7.8, 50 mM NaCl, 2 mM DTT and eluted with a gradient (20 column volumes) to 50 mM Tris/HCl, pH 7.8, 1 M NaCl, 2 mM DTT. Sirt2 was then applied to a Superdex200 gel filtration column (GE Healthcare) equilibrated in 20 mM Tris/HCl, pH 7.8, 150 mM NaCl, 2 mM DTT. The eluted protein was analyzed by SDS-PAGE, re-concentrated, and shock-frozen in liquid nitrogen for storage at -80 °C.
(§1) The commercial Fluor-de-Lys (FdL) assay kits 1 and 2 (Biomol, Plymouth Meeting, USA) were used to test the deacetylase activity of the four Sirtuins. In both kits the substrate derived from p53 is composed of three amino acids, the acetyl lysine and a C-terminally attached fluorophor. For Sirt2 and 3, FdL-2 peptide (QPK(acetyl-K)) was used, and FdL-1 peptide (RHK(acetyl-K)) for Sirt5 and Sirt6. All tests were done with 0.1 mM of the respective FdL peptide and 0.5 mM NAD^+ as substrates.
(§2) NCI compound stocks were prepared by dissolving them in DMSO at a concentration of 5 mM. The initial screens with all 40 compounds contained 5 μl Sirtuin solution (Sirt2/3 0.1 mg/ml stock concentration; Sirt5/6 1 mg/ml), 1 μl of compound stock (resulting in a 100 μM end concentration), 15 μl FdL substrate, and assay buffer (supplied in the assay kit) to a total volume of 50 μl. As control reactions, peptide with either the compound (without Sirtuin) or with Sirtuin and DMSO instead of compound were measured. After starting the reactions by adding the FdL substrate, assays were incubated for 30 min at 37 °C. Subsequently, 50 μl of a 10 mg/ml trypsin stock (“Developer solution”) were added and the reactions were incubated for 45 min at room temperature. Fluorescence values were measured in a fluorometric plate reader with excitation at 360 nm and read out at 485 nm. Values were then corrected with the control reaction (same compound, but without Sirtuin).
(§3) All measurements shown are averages of duplicates (screen) or triplicates (dose-response curves), and representatives of at least two independent replications. Error bars indicate standard deviations.

Sirt5 = target: T2, Sirt5 (Homo sapiens, UniProt Q9NXA8); test: Fluor-de-Lys peptide deacetylation assay, Sirt5
T2 construct: Sirt5 residues 34-302; His-tag with linker comprising a TEV protease cleavage site (N); made in house
T2 sequence (Q9NXA8 34-302): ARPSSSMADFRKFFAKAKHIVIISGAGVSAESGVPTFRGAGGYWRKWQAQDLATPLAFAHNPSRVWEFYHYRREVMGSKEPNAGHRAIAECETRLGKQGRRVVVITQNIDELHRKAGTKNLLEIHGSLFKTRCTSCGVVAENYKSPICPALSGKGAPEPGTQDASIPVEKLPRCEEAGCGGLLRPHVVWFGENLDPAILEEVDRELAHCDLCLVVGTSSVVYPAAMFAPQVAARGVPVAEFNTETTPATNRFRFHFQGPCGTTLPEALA
Experimental: (§4) Sirt3 was expressed in E. coli and purified via Ni-NTA and size exclusion chromatography as described elsewhere, and Sirt5 according to the protocol of Schuetz et al.. […] The protein was bound to the HiTrapQ column in buffer A and eluted in a gradient to buffer A supplemented with 400 mM KCl. Fractions were analyzed by SDS-PAGE, and the Sirt1 fractions were pooled and transferred into buffer A using a NAP column (GE Healthcare).
as §1, §2, §3

Sirt3 = target: T3, Sirt3 (Homo sapiens, UniProt Q9NTG7); test: Fluor-de-Lys peptide deacetylation assay, Sirt3
T3 construct: Sirt3 residues 114-399; His-tag with linker comprising a TEV protease cleavage site (N); made in house; host or cells: E. coli
T3 sequence (Q9NTG7 114-399): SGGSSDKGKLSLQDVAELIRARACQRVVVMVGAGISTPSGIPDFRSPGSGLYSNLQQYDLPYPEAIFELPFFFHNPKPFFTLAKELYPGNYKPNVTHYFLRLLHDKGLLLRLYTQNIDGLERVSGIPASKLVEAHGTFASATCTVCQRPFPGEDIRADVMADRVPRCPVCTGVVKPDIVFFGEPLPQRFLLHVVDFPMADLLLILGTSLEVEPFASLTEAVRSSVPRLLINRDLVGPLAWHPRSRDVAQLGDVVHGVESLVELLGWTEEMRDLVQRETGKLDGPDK
Experimental: as §4, §1, §2, §3

Sirt6 = target: T4, Sirt6 (Homo sapiens, UniProt Q8N6T7); test: Fluor-de-Lys peptide deacetylation assay, Sirt6
T4 construct: Sirt6 residues 13-308; His-tag with linker comprising a TEV protease cleavage site (N, cleaved yes); made in house; host or cells: E. coli Rosetta2
T4 sequence (Q8N6T7 13-308): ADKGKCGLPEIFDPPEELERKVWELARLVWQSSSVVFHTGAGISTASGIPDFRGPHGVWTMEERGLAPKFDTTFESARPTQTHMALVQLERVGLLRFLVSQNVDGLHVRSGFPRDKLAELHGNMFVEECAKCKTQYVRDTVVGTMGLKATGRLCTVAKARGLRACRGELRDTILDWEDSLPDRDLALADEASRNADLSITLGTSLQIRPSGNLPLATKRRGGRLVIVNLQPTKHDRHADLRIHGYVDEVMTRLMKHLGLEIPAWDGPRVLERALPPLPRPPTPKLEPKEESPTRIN
Experimental: as §1, §2, §3

[1] = 100 μM compound, 0.1 mM FdL-2 peptide, 0.5 mM NAD+
[2] = 100 μM compound, 0.1 mM FdL-1 peptide, 0.5 mM NAD+

| Molecule | Effect on the activity of Sirt2 (Sirt2; [1]) | Effect on the activity of Sirt5 (Sirt5; [2]) | Effect on the activity of Sirt3 (Sirt3; [1]) | Effect on the activity of Sirt6 (Sirt6; [2]) | Effect on the activity of Sirt2 (Sirt2) | Effect on the activity of Sirt5 (Sirt5) | Effect on the activity of Sirt3 (Sirt3) | Effect on the activity of Sirt6 (Sirt6) |
| --- | --- | --- | --- | --- | --- | --- | --- | --- |
| 7-(1-naphthyl)-7^5-dibenzo[a,j]phenazin-5-amine compound with 7-(1-naphthyl)-7^5-dibenzo[a,j]phenazine-5,9-diamine (1:1), (Sudan Red) [CSC1] | inhibition^a (significant inhibitory effects (>25% loss of activity)) | inhibition (significant inhibitory effects (>25% loss of activity)) | inhibition (significant inhibitory effects (>25% loss of activity)) | inhibition (significant inhibitory effects (>25% loss of activity)) | – | – | – | – |
| c1ccc2c(c1)C(=Nc1ccc(N=C3c4ccccc4-c4ccccc43)cc1)c1ccccc1-2 [CSC2, N1,N4-di(9H-fluoren-9-ylidene)-1,4-benzenediamine] | inhibition (significant inhibitory effects (>25% loss of activity)) | --- (no such effect) | --- (no such effect) | --- (no such effect) | – | – | – | – |
| O=C1c2ccccc2-c2ccc(/N=[N+](\[O-])c3ccc4c(c3)C(=O)c3ccccc3-4)cc21 [CSC3] | --- (no such effect) | --- (no such effect) | --- (no such effect) | --- (no such effect) | – | – | – | – |
| Cc1cc(N2CCOCC2)nc2ccc(Cc3ccc4nc(N5CCOCC5)cc(C)c4c3)cc12 [CSC4, 4-methyl-6-((4-methyl-2-(4-morpholinyl)-6-quinolinyl)methyl)-2-(4-morpholinyl)quinoline] | inhibition (significant inhibitory effects (>25% loss of activity)) | --- (no such effect) | --- (no such effect) | --- (no such effect) | – | – | – | – |
| O=C1c2ccccc2C(=O)c2c(Nc3cc4c5c(ccc6c7ccc8c9c(cc(Nc%10cccc%11c%10C(=O)c%10ccccc%10C%11=O)c(c3c56)c97)-c3ccccc3C8=O)C(=O)c3ccccc3-4)cccc21 [CSC6, 16,17-bis((9,10-dioxo-9,10-dihydro-1-anthracenyl)amino)anthra[9,1,2-cde]benzo[rst]pentaphene-5,10-dione] | inhibition (significant inhibitory effects (>25% loss of activity)) | --- (no such effect) | --- (no such effect) | inhibition (significant inhibitory effects (>25% loss of activity)) | – | – | – | – |
| S=C(Nc1ccc2c(c1)Cc1ccccc1-2)Nc1ccc2c(c1)Cc1ccccc1-2 [CSC7, N,N'-di(9H-fluoren-2-yl)thiourea] | inhibition (significant inhibitory effects (>25% loss of activity)) | --- (no such effect) | --- (no such effect) | --- (no such effect) | – | – | – | – |
| CC(C)c1ccc(C=C2C=C(c3ccc4ccccc4c3)OC2=O)cc1 [CSC9, 3-(4-isopropylbenzylidene)-5-(2-naphthyl)-2(3H)-furanone] | inhibition (significant inhibitory effects (>25% loss of activity)) | activation^c | --- (no such effect) | --- (no such effect) | – | – | – | – |
| O=C(C[n+]1ccc2ccccc2c1)c1ccc2ccc3ccccc3c2c1 [CSC10, 2-(2^5-isoquinolin-2-yl)-1-(3-phenanthryl)ethanone] | – | – | – | – | inhibition (key: inhibition: significant inhibitory effects (>25% loss of activity); ---: no such effect) | --- (key: inhibition: significant inhibitory effects (>25% loss of activity); ---: no such effect) | inhibition (key: inhibition: significant inhibitory effects (>25% loss of activity); ---: no such effect) | inhibition (key: inhibition: significant inhibitory effects (>25% loss of activity); ---: no such effect) |
| O=S1(=O)CCN(c2ccccc2CC(c2c[nH]c3ccccc23)c2c[nH]c3ccccc23)CC1 [CSC11, 3-(2-(2-(1,1-dioxido-4-thiomorpholinyl)phenyl)-1-(1H-indol-3-yl)ethyl)-1H-indole] | --- (no such effect) | --- (no such effect) | --- (no such effect) | --- (no such effect) | – | – | – | – |
| O=S(=O)(c1ccc2ccccc2c1)N1CCN(S(=O)(=O)c2ccc3ccccc3c2)CC1 [CSC12, 1,4-bis(2-naphthylsulfonyl)piperazine] | --- (no such effect) | --- (no such effect) | --- (no such effect) | --- (no such effect) | – | – | – | – |
